≈ marks a conversion by molar mass, not a printed value.
Assays:
Peptide deformylase = target: T1, Peptide deformylase (Pseudomonas aeruginosa (strain ATCC 15692 / PAO1 / 1C / PRS 101 / LMG12228), UniProt Q9I7A8); assay: Inhibition of Pseudomonas aeruginosa peptide deformylase after 10 mins by fluorescence assay
T1 sequence (Q9I7A8 whole entry): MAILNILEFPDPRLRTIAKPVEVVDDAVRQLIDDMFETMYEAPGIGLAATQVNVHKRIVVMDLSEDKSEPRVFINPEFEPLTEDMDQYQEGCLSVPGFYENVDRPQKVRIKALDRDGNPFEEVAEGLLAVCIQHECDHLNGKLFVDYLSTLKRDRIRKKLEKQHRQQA

Streptococcus pneumoniae = assay: Antimicrobial activity against Streptococcus pneumoniae ATCC 6305 after 48 hrs by microtiter plate assay; assay type: functional; details: ATCC 6305, 48 h
Haemophilus influenzae = assay: Antimicrobial activity against Haemophilus influenzae ATCC 51907 after 24 hrs by microtiter plate assay; assay type: functional; details: ATCC 51907, 24 h
Moraxella catarrhalis = assay: Antimicrobial activity against Moraxella catarrhalis ATCC 43617 after 48 hrs by microtiter plate assay; assay type: functional; details: ATCC 43617, 48 h
Staphylococcus aureus = assay: Antimicrobial activity against Staphylococcus aureus ATCC 6538p after 24 hrs by microtiter plate assay; assay type: functional

| SMILES | IC50 (Peptide deformylase) [nM] | MIC (Streptococcus pneumoniae) [µg/mL] | MIC (Haemophilus influenzae) [µg/mL] | MIC (Moraxella catarrhalis) [µg/mL] | MIC (Staphylococcus aureus) [µg/mL] |
| --- | --- | --- | --- | --- | --- |
| CCCC[C@H](CN(O)C=O)C(=O)[C@@H]1CCCN1C(=O)OC(C)(C)C | 169 | 6.3 (≈ 18.4 µM) | 0.4 (≈ 1.17 µM) | 0.4 (≈ 1.17 µM) | 12.5 (≈ 36.5 µM) |
| CCCC[C@H](CN(O)C=O)C(=O)[C@H](NC(=O)OC(C)(C)C)C(C)(C)C | 603 | 6.3 (≈ 17.6 µM) | 3.2 (≈ 8.93 µM) | 0.1 (≈ 0.279 µM) | 100 (≈ 279 µM) |
| CCCC[C@H](CN(O)C=O)C(=O)[C@@H](NC(=O)OC(C)(C)C)C(C)C | 183 | 1.6 (≈ 4.65 µM) | 1.6 (≈ 4.65 µM) | 0.1 (≈ 0.29 µM) | 12.5 (≈ 36.3 µM) |
| CCCC[C@H](CN(O)C=O)C(=O)[C@H](C)NC(=O)OC(C)(C)C | 330 | 3.2 (≈ 10.1 µM) | 0.8 (≈ 2.53 µM) | 1.6 (≈ 5.06 µM) | 12.5 (≈ 39.5 µM) |
| COc1ccccc1NC(=O)N[C@@H](C(=O)N(CC(=O)NO)CC1CCCC1)C(C)(C)C | 29 | 0.2 (≈ 0.46 µM) | 0.2 (≈ 0.46 µM) | 0.1 (≈ 0.23 µM) | 50 (≈ 115 µM) |
| CCCC[C@H](CN(O)C=O)C(=O)[C@@H](NC(=O)c1ccccc1)C(C)C | 51 | 3.2 (≈ 9.18 µM) | 0.2 (≈ 0.574 µM) | 0.4 (≈ 1.15 µM) | 3.2 (≈ 9.18 µM) |
| CCCC[C@H](CN(O)C=O)C(=O)[C@@H](NC(=O)C(C)C)C(C)C | 60 | 0.8 (≈ 2.54 µM) | 0.2 (≈ 0.636 µM) | 1.6 (≈ 5.09 µM) | 3.2 (≈ 10.2 µM) |
| CCCC[C@H](CN(O)C=O)C(=O)[C@@H](NC(=O)c1ccccn1)C(C)C | 117 | 0.2 (≈ 0.572 µM) | 0.1 (≈ 0.286 µM) | 0.1 (≈ 0.286 µM) | 1.6 (≈ 4.58 µM) |
| CCCC[C@H](CN(O)C=O)C(=O)[C@@H](NC(=O)c1cccc(OC)c1)C(C)C | 22 | 0.2 (≈ 0.528 µM) | 0.2 (≈ 0.528 µM) | 0.8 (≈ 2.11 µM) | 0.8 (≈ 2.11 µM) |
| CCCC[C@H](CN(O)C=O)C(=O)[C@@H](NC(=O)c1cccc(F)c1)C(C)C | 43 | 0.4 (≈ 1.09 µM) | 0.2 (≈ 0.546 µM) | 1.6 (≈ 4.37 µM) | 1.6 (≈ 4.37 µM) |
| CCCC[C@H](CN(O)C=O)C(=O)[C@@H](NC(=O)c1cccnc1)C(C)C | 73 | 0.2 (≈ 0.572 µM) | 0.1 (≈ 0.286 µM) | 0.1 (≈ 0.286 µM) | 0.8 (≈ 2.29 µM) |
| CCCC[C@H](CN(O)C=O)C(=O)[C@@H](NC(=O)c1ccncc1)C(C)C | 52 | 0.4 (≈ 1.14 µM) | 0.1 (≈ 0.286 µM) | 0.1 (≈ 0.286 µM) | 1.6 (≈ 4.58 µM) |
| CCCC[C@H](CN(O)C=O)C(=O)[C@@H](NC(=O)c1ccc2ccccc2n1)C(C)C | 8 | 0.1 (≈ 0.25 µM) | 0.2 (≈ 0.501 µM) | 0.1 (≈ 0.25 µM) | 0.4 (≈ 1 µM) |
| CCCC[C@H](CN(O)C=O)C(=O)[C@@H](NC(=O)c1nccc2ccccc12)C(C)C | 5 | 0.4 (≈ 1 µM) | 0.4 (≈ 1 µM) | 0.1 (≈ 0.25 µM) | 6.4 (≈ 16 µM) |
| CCCC[C@H](CN(O)C=O)C(=O)[C@@H](NC(=O)NC(C)C)C(C)C | 16 | 0.4 (≈ 1.21 µM) | 0.1 (≈ 0.304 µM) | 0.8 (≈ 2.43 µM) | 1.6 (≈ 4.86 µM) |
| CCCC[C@H](CN(O)C=O)C(=O)[C@@H](NC(=O)NC1CCCC1)C(C)C | 10 | 1.6 (≈ 4.5 µM) | 0.2 (≈ 0.563 µM) | 0.1 (≈ 0.281 µM) | 1.6 (≈ 4.5 µM) |
| CCCC[C@H](CN(O)C=O)C(=O)[C@@H](NC(=O)Nc1ccccc1)C(C)C | 49 | 0.4 (≈ 1.1 µM) | 0.4 (≈ 1.1 µM) | 0.1 (≈ 0.275 µM) | 1.6 (≈ 4.4 µM) |
| CCCC[C@H](CN(O)C=O)C(=O)[C@@H](NC(=O)Nc1ccccc1OC)C(C)C | 41 | 0.1 (≈ 0.254 µM) | 0.2 (≈ 0.508 µM) | 0.1 (≈ 0.254 µM) | 0.8 (≈ 2.03 µM) |
| CCCC[C@H](CN(O)C=O)C(=O)[C@@H](NC(=O)Nc1ccccc1F)C(C)C | 41 | 0.2 (≈ 0.524 µM) | 0.1 (≈ 0.262 µM) | 0.1 (≈ 0.262 µM) | 0.4 (≈ 1.05 µM) |
| CCCC[C@H](CN(O)C=O)C(=O)[C@@H](NC(=O)Nc1ccccn1)C(C)C | 43 | 1.6 (≈ 4.39 µM) | 0.1 (≈ 0.274 µM) | 0.1 (≈ 0.274 µM) | 0.8 (≈ 2.2 µM) |

Reference: ChEMBL document CHEMBL1641371, “Peptide deformylase inhibitors with non-peptide scaffold: synthesis and structure-activity relationships” (Bioorg Med Chem Lett, 2011)
